From patent US7022720B2, “Synthetic diazonamides as novel anti-mitotic agents” (Board of Regents, The University of Texas System, priority 2001, dated 2006)
Where two headings read alike, the source gives them in different places.

Legend:
OVCAR-3 cells [1] = assay: In vitro cytotoxicity assay (Promega CellTiter-Glo) in OVCAR-3; format: cell-based, human
Description: A growth inhibition study was also conducted using OVCAR-3 (a human ovarian adenocarcinoma) cells. Human ovarian adenocarcinoma OVCAR-3 cells are treated with diazonamide and control compounds for 48 hours and evaluated for cell viability using the Promega CellTiter-Glo™ Assay (Promega, Madison, Wis.). This assay uses luciferase to measure ATP as indicator of metabolically active cells.

HCT-116 cells [2] = conditions: HCT-116 human colorectal carcinoma line; cited from earlier work
SK-MEL-5 cells = assay: MTT assay in SK-MEL-5; format: cell-based, human; conditions: SK-MEL-5, MTT, FIG. 13
Excerpt: This assay measures cellular viability and proliferation based on the ability of live cells to take up and cleave a tetrazolium salt to generate a colored product.

HCT-116 cells [3] = format: cell-based, human; conditions: 30 nM, 12-48 hours, FIG. 14
Description: FACS Analysis was performed on HCT-116 cells to examine the effect of JL-9 on mitosis. 150,000 HCT-116 cells were incubated per well with media into six well tissue culture plates. Cells were allowed to adhere for 16–18 hours. Media containing 0.01% ethanol (vehicle control), 30 nanomolar (nM) taxol, 30 nM vinblastine and 30 nM JL-9 was added to cells and incubated for 12, 24, 36, or 48 hours. At these time points, cells were harvested with 0.25% trypsin 1 mM EDTA, and transferred to 1.5 ml Eppendorf tubes. Cells were pelleted and washed twice with 1×PBS. Cells were then fixed in −20° C. 100% ethanol and stored at 4° C. Cells were pelleted from 100% ethanol, washed once with 1×PBS, and treated with Vindelov's propidium iodide solution (50 ug/ml propidium iodide, 0.01 mM NaCl, 0.1% IPEGAL, 0.01 mg RNase) and 1 mg/ml RNAse for 30 minutes at 37° C. Propidium iodide is a fluorescent marker that binds to nucleotides. It can be used with FACS scan analysis to determine the ploidy of a population of cells. FACS scan analysis was performed using […] FACScan instrument. Data was analyzed using Cell Quest software.

OVCAR-3 cells [4] = assay: Indirect immunofluorescence of tubulin cytoskeleton in OVCAR-3; format: cell-based, human; conditions: OVCAR-3, 12 or 23 hours, FIGS. 15D and 15E
Description: Immunofluorescence was performed on JL-9, taxol, vinblastine, control-treated OVCAR-3 cells to examine their effects on tubulin cytoskeleton. Cells were grown on 2 cm glass cover slips in tissue culture wells. Media containing JL-9, vinblastine, or taxol was added at various concentrations and incubated for 12 or 23 hours. Hoescht […] nuclear dye was added directly to the media (1.5 ug/ml) and incubated at 37° C. for 30 minutes. Coverslips were washed 3× with 1×PBS and fixed for 10 minutes with −20C 100% methanol. Coverslips were washed 3× with 1×PBS/1% BSA and treated directly with a 1/2000 dilution of anti-α-tubulin antibody (mouse anti-human). Coverslips were washed 3× with 1×PBS/1% BSA and treated with 1/500 dilution of fluorescently conjugated goat anti-mouse secondary antibody (Alexa Fluor 488). Coverslips were washed 3× with 1×PBS/1% BSA and mounted on microscope slides using mounting media (Aqua Poly Mount). Images were obtained using Zeiss Axiovert 100M digital light and confocal microscopy.

BSC-1 cells = assay: Immunofluorescence of alpha tubulin in BSC-1 cells after thymidine block; format: cell-based, African Green Monkey; conditions: BSC-1, 100 nM, 12 hours after thymidine block, FIG. 16
Description: Immunofluorescence was also performed on JL-9, JL-10, taxol and vinblastine-treated BSC-1 cells subjected to thymidine block. BCS-1 African Green Monkey kidney cells were treated for 18 hours in culture medium containing 2 mM thymidine and then returned to normal medium containing 100 nM of taxol, vinblastine, JL-10 (control) or JL-9 for 12 hours. During the last 30 minutes, Hoecht's dye was added to 100 nM to stain chromosomes. Cells were fixed in cold methanol and stained with antibody specific for alpha tubulin. Images of the organization of microtubules in spindles were collected with a laser scanning confocal microscope using a single 488 nm excitation wavelength.

[5] = Comparison of synthesized compound with natural diazonamide (handling stability); format: physicochemical
Excerpt: Characteristics of synthesized diazonamide compound, JL-9, were compared to naturally occurring diazonamide. […] The process completes upon attempted preparative HPLC purification of 1b (FIG. 1) under conditions identical to those used to isolate natural (−)-diazonamide A. In addition, a second degradation pathway available in this series appears as a result of the cleavage of the strained macrolactam ring through diketopiperazine formation that involves the C37 amine and the C12 amide carbonyl.

Compound	GI50 (OVCAR-3 cells [1]; Homo sapiens, OVCAR-3, 48 h) [nM]	cytotoxic and growth inhibitory effect (SK-MEL-5 cells)	cell cycle arrest (ploidy) (HCT-116 cells [3])	mitotic figures / spindle organization (BSC-1 cells)	further results
CC(C)[C@H](O)C(=O)N[C@H]1Cc2ccc3c(c2)[C@]24C5=C(N=C(O5)[C@H](C(C)C)NC1=O)c1nc(Cl)c(o1)-c1c(Cl)[nH]c5cccc(c15)-c1cccc2c1N[C@@H]4O3 [natural diazonamide, diazonamide A, reference compound]	–	–	–	–	GI50 (OVCAR-3 cells [1]; OVCAR-3, 48 hours, CellTiter-Glo, read-out: GI50): 8 nM; GI50 (50% growth inhibitory concentration) (HCT-116 cells [2]): less than 15 ng/ml
CC(C)[C@H](O)C(=O)N[C@H]1Cc2ccc3c(c2)C24C5=C(N=C(O5)[C@H](C(C)C)NC1=O)c1nc(Cl)c(o1)-c1c(Cl)[nH]c5cccc(c15)-c1cccc2c1OC4O3 (stereo partly drawn) [JL-9]	16	potent cytotoxic and growth inhibitory effect	arrests HCT-116 cells in the tetraploid (4n) state	Mitotic figures were frequently found	fold more potent than JL-10 at inhibiting growth (OVCAR-3 cells [1]; OVCAR-3 in vitro): > 50 fold; potency relative to natural diazonamide A and paclitaxel (OVCAR-3 cells [1]; OVCAR-3 in vitro): equipotent to natural diazonamide A and paclitaxel; effect on tubulin cytoskeleton (OVCAR-3 cells [4]): aberrant effects on the cytoskeleton and formation of abnormal mitotic spindles; stability on handling [5]: susceptible to handling
CC(C)[C@H](N)C(=O)N[C@H]1Cc2ccc3c(c2)C24C5=C(N=C(O5)[C@H](C(C)C)NC1=O)c1nc(Cl)c(o1)-c1c(Cl)[nH]c5cccc(c15)-c1cccc2c1OC4O3 (stereo partly drawn) [JL-10]	845	inactive analogue	–	resembled the vehicle controls	–
CC(=O)O[C@H]1C(=O)[C@@]2(C)[C@H]([C@H](OC(=O)c3ccccc3)[C@]3(O)C[C@H](OC(=O)[C@H](O)[C@@H](NC(=O)c4ccccc4)c4ccccc4)C(C)=C1C3(C)C)[C@]1(OC(C)=O)CO[C@@H]1C[C@@H]2O [paclitaxel, reference compound]	–	–	arrests HCT-116 cells in the tetraploid (4n) state	Mitotic figures were frequently found	GI50 (OVCAR-3 cells [1]; Homo sapiens, OVCAR-3, 48 hours, CellTiter-Glo, read-out: GI50): 8 nM
CC[C@]1(O)C[C@@H]2CN(CCc3c([nH]c4ccccc34)[C@@](C(=O)OC)(c3cc4c(cc3OC)N(C)[C@H]3[C@@](O)(C(=O)OC)[C@H](OC(C)=O)[C@]5(CC)C=CCN6CC[C@]43[C@@H]65)C2)C1 [vinblastine, reference compound]	–	–	arrests HCT-116 cells in the tetraploid (4n) state	Mitotic figures were frequently found	–
